These results are taken from paper PMC8041306 (Journal of Medicinal Chemistry, 2021).

SMILES strings stand for the structures.

A word on the melting point: it is the temperature, or range, at which the solid turns liquid. The compound `O=C(NCc1ccc(F)cc1)N1CCN2C(=O)OC(C3CCCCC3)(C3CCCCC3)C2C1` (stereo not shown) showed a melting point of 94 to 95 °C.

Turning to `CCCC1(CCC)OC(=O)N2CCN(C(=O)NCc3ccc(F)cc3)CC21` (stereo not shown), the melting point lay within 74 to 77 °C.

The compound `N=C(NCc1ccccc1)N1CCN2C(=O)OC(c3ccccc3)(c3ccccc3)C2C1` (stereo not shown) had a melting point of 68 to 69 °C.

Consider `C[C@H]1CN(C(=O)NCc2ccc(F)cc2)C[C@H]2N1C(=O)OC2(c1ccccc1)c1ccccc1`, for which the melting point was in the range of 153 to 156 °C.

`O=C(NCc1ccc(F)cc1)N1CCN2C(=O)OC(c3ccc(F)cc3)(c3ccc(F)cc3)C2C1` (stereo not shown) yielded a melting point of 104 to 107 °C.

On to `O=C(NCc1ccc(F)cc1)N1CCN2C(=O)OC(c3ccc(Cl)cc3)(c3ccc(Cl)cc3)C2C1` (stereo not shown), for which the melting point lay in the range of 77 to 79 °C.

`Cc1ccc(C2(c3ccc(C)cc3)OC(=O)N3CCN(C(=O)NCc4ccc(F)cc4)CC32)cc1` (stereo not shown) registered a melting point of 89 to 90 °C.

`CN(C)c1ccc(C2(c3ccc(N(C)C)cc3)OC(=O)N3CCN(C(=O)NCc4ccc(F)cc4)CC32)cc1` (stereo not shown) came in with a melting point of 110 to 113 °C.

For the compound `Cc1ccccc1C1(c2ccccc2C)OC(=O)N2CCN(C(=O)NCc3ccc(F)cc3)CC21` (stereo not shown), the melting point fell in the range of 217 to 219 °C.

Regarding `COc1ccccc1C1(c2ccccc2OC)OC(=O)N2CCN(C(=O)NCc3ccc(F)cc3)CC21` (stereo not shown), the melting point was 172 to 173 °C.

The compound `O=C(NCc1ccc(F)cc1)N1CCN2C(=O)OC3(c4ccccc4-c4ccccc43)C2C1` (stereo not shown) yielded a melting point of 120 to 123 °C.

On to `N=C(NCc1ccc(F)cc1)N1CCN2C(=O)OC(c3ccccc3)(c3ccccc3)C2C1` (stereo not shown) [Compound 16, N-(4-Fluorobenzyl)-3-oxo-1,1-diphenyltetrahydro-1H-oxazolo[3,4-a]pyrazine-7(3H)-carboximidamide], for which the melting point was 82 to 85 °C.

On to `O=C(NCc1ccc(F)cc1)N1C[C@H](c2ccccc2)N2C(=O)OC(c3ccccc3)(c3ccccc3)[C@H]2C1` [Compound 21, (5S,8aR)-N-(4-Fluorobenzyl)-3-oxo-1,1,5-triphenyltetrahydro-1H-oxazolo[3,4-a]pyrazine-7(3H)-carboxamide], for which the melting point lay in the range of 105 to 107 °C.
